Assays:
[1] = target: Dual specificity protein kinase CLK2 (Homo sapiens) (UniProt P49760); details: Compound concentration 1000.0 nM
[2] = target: Serine/threonine-protein kinase LATS2 (Homo sapiens) (UniProt Q9NRM7); details: Compound concentration 1000.0 nM
[3] = target: T1, Serine/threonine-protein kinase Nek1 (Homo sapiens) (UniProt Q96PY6); details: Compound concentration 1000.0 nM
T1 sequence (whole entry): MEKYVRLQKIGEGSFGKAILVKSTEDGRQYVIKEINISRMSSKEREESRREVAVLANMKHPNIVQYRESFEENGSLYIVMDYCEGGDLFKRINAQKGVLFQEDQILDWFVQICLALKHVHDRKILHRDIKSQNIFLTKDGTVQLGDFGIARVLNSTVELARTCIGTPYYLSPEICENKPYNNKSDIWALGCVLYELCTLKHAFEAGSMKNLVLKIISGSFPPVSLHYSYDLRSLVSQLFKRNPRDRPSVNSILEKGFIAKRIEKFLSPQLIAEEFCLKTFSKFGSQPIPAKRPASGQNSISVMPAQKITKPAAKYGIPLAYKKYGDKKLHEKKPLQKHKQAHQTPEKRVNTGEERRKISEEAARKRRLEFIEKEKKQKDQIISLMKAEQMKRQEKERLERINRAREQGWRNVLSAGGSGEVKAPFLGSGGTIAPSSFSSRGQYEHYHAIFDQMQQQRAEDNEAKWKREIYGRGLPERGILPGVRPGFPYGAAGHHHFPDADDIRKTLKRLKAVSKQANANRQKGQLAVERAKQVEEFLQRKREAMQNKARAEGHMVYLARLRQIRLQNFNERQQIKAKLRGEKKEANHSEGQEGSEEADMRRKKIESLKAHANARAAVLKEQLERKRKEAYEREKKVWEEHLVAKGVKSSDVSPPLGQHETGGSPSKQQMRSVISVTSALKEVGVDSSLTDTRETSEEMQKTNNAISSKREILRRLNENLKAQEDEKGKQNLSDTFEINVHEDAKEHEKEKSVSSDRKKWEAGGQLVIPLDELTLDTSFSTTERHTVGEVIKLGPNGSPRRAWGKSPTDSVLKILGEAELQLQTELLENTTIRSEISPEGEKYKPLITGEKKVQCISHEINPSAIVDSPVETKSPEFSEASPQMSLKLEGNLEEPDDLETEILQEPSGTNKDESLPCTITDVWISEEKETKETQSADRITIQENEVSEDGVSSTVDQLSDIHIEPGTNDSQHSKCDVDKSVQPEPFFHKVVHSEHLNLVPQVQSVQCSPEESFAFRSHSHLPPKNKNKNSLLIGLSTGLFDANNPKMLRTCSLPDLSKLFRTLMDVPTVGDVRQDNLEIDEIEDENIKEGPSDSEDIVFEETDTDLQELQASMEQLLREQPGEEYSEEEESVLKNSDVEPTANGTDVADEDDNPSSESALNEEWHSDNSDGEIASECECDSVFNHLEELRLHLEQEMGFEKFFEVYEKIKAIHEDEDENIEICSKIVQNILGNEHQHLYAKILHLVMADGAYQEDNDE

[4] = target: Serine/threonine-protein kinase NIM1 (Homo sapiens) (UniProt Q8IY84); details: Compound concentration 1000.0 nM
[5] = target: D(3) dopamine receptor (Homo sapiens) (UniProt P35462); details: Compound concentration 10.0 uM
[6] = target: Dual specificity mitogen-activated protein kinase kinase 4 (Homo sapiens) (UniProt P45985); details: Compound concentration 1000.0 nM
[7] = target: Dual specificity tyrosine-phosphorylation-regulated kinase 1B (Homo sapiens) (UniProt Q9Y463); details: Compound concentration 1000.0 nM
[8] = target: Tyrosine-protein kinase BTK (Homo sapiens) (UniProt Q06187); details: Compound concentration 1000.0 nM
[9] = target: T2, Serine/threonine-protein kinase Nek11 (Homo sapiens) (UniProt Q8NG66); details: Compound concentration 1000.0 nM
T2 sequence (whole entry): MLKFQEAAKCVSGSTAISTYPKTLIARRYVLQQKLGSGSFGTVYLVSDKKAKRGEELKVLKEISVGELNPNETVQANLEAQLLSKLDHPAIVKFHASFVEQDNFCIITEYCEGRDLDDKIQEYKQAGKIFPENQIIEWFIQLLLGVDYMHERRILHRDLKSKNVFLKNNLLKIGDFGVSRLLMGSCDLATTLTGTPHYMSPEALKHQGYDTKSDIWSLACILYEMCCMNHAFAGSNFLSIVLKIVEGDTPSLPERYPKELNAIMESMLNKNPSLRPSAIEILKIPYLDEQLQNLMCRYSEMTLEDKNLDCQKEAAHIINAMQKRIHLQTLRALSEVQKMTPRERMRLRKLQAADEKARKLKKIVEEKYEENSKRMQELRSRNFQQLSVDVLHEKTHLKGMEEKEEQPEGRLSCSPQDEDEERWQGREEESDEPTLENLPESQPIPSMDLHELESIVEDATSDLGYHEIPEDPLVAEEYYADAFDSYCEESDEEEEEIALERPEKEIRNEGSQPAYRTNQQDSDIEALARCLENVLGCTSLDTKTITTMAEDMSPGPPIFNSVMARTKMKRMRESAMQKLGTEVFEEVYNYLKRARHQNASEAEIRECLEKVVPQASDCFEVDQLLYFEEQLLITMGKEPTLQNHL

[10] = target: Serine/threonine-protein kinase Nek4 (Homo sapiens) (UniProt P51957); details: Compound concentration 1000.0 nM
Serine/threonine-protein kinase Nek4 (Homo sapiens), sequence (P51957 whole entry, looked up): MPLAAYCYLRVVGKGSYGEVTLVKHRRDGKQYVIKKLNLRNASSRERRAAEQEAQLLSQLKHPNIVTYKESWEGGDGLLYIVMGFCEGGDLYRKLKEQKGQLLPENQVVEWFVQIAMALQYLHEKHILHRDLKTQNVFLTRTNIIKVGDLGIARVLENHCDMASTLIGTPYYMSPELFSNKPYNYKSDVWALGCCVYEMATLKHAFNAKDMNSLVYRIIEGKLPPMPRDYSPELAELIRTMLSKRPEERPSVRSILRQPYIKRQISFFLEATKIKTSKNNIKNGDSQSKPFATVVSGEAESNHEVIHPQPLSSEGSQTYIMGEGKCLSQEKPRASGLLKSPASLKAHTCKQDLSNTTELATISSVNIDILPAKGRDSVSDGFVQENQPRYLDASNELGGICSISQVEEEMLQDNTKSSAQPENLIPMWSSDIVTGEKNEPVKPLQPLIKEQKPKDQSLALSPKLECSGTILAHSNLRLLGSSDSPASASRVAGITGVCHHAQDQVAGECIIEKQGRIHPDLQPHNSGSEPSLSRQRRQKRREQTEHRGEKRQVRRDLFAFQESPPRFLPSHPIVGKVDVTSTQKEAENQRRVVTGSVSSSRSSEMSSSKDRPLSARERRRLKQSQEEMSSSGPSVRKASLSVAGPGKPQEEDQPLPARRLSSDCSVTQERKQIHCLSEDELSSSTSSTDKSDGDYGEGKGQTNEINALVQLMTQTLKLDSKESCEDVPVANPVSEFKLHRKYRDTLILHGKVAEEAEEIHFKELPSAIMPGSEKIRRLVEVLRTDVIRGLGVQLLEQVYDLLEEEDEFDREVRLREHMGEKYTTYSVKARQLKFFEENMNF

Serine/threonine-protein kinase NIM1 (Homo sapiens), sequence (Q8IY84 whole entry): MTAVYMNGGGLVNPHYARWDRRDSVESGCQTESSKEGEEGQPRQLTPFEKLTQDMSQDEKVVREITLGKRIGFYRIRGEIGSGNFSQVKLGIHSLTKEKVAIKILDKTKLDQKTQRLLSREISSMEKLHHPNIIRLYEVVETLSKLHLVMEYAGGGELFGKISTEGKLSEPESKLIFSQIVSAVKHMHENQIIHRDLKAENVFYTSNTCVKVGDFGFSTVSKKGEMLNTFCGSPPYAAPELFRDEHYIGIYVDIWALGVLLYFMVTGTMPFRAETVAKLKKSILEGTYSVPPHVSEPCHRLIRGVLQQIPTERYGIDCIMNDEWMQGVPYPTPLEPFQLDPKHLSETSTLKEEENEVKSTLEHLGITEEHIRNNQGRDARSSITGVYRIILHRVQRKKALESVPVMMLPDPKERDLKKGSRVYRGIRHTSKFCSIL
Serine/threonine-protein kinase LATS2 (Homo sapiens), sequence (Q9NRM7 whole entry): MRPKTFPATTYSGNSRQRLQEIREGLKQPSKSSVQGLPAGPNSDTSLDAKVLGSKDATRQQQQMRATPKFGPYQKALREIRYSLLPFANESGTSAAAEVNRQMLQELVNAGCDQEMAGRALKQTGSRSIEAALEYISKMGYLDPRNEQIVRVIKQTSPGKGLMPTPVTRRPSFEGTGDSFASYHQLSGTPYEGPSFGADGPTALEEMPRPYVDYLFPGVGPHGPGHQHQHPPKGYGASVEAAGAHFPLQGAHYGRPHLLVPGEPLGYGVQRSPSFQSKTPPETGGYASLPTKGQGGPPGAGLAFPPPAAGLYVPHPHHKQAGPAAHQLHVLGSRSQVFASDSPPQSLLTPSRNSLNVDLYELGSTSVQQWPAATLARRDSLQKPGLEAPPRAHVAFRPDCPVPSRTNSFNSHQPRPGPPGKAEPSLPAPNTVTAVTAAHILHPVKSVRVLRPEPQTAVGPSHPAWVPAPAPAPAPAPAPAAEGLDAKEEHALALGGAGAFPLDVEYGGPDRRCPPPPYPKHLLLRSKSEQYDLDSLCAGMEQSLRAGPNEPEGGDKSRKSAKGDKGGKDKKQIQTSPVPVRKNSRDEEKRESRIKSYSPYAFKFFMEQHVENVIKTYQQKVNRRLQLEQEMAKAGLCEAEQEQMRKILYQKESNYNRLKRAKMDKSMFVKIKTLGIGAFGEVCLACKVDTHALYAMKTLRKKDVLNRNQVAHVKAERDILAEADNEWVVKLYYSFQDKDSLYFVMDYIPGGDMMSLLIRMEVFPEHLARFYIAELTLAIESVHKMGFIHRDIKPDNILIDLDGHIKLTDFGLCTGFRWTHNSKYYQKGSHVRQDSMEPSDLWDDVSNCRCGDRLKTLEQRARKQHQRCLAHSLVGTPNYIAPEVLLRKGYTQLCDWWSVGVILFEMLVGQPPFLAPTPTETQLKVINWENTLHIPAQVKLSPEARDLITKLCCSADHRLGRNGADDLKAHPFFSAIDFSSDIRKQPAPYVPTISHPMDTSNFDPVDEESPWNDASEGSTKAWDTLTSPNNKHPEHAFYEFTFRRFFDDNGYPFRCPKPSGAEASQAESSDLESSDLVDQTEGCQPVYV
Dual specificity mitogen-activated protein kinase kinase 4 (Homo sapiens), sequence (P45985 whole entry): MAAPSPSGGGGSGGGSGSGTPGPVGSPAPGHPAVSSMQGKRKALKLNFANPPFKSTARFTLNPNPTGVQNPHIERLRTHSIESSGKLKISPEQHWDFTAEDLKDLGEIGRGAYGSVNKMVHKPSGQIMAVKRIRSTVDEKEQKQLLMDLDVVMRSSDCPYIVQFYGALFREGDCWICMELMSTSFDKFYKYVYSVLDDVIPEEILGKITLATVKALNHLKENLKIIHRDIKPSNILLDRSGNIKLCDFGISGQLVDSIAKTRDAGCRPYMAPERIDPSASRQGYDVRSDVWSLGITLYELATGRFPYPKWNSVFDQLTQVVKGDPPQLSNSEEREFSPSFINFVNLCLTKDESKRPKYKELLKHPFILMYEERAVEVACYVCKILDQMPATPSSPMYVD
Dual specificity tyrosine-phosphorylation-regulated kinase 1B (Homo sapiens), sequence (Q9Y463 whole entry, looked up): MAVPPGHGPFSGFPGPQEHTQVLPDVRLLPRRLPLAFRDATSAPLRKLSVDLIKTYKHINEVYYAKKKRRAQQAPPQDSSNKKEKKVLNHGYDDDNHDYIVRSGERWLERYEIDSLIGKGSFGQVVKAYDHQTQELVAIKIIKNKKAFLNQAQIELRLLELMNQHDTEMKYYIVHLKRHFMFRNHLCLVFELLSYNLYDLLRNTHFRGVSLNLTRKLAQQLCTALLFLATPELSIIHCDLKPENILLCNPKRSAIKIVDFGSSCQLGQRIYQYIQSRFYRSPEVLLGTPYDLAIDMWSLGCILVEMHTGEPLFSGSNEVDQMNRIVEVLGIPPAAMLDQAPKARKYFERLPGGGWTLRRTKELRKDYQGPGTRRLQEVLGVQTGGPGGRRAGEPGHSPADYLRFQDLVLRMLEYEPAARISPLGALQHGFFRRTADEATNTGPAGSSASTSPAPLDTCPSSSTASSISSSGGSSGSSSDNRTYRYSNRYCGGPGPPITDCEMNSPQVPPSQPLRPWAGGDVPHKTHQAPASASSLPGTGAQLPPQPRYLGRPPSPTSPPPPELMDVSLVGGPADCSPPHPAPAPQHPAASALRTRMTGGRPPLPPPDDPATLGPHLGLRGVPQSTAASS
Tyrosine-protein kinase BTK (Homo sapiens), sequence (Q06187 whole entry): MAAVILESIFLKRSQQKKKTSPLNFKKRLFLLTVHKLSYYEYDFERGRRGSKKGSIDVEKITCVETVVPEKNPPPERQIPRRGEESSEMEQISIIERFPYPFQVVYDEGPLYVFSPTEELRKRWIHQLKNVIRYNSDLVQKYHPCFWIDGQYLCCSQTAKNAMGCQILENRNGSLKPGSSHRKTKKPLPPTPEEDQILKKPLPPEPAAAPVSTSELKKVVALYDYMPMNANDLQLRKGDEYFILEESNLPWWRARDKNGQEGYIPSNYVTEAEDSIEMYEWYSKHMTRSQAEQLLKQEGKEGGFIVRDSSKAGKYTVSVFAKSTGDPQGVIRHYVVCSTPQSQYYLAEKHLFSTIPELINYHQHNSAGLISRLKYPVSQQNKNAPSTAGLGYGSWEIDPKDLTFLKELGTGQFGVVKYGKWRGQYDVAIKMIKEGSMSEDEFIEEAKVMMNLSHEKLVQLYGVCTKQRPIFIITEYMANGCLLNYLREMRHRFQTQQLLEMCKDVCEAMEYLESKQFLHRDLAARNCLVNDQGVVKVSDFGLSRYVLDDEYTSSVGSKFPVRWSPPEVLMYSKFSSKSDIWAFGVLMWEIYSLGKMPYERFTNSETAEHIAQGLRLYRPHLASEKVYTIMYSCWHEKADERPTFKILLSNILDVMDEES
Dual specificity protein kinase CLK2 (Homo sapiens), sequence (P49760 whole entry, looked up): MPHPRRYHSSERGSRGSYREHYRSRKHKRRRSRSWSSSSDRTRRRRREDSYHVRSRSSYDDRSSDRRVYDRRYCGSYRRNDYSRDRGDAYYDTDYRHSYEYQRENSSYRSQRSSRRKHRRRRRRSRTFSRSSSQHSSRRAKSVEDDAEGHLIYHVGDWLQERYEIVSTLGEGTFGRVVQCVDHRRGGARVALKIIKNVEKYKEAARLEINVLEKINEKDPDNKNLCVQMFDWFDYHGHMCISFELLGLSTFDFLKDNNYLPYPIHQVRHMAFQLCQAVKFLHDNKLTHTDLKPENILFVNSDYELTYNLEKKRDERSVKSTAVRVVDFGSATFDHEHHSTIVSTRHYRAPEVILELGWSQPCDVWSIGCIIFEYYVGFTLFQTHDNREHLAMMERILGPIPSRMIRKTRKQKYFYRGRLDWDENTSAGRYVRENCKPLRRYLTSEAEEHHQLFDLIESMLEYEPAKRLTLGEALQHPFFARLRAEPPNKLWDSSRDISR
D(3) dopamine receptor (Homo sapiens), sequence (P35462 whole entry): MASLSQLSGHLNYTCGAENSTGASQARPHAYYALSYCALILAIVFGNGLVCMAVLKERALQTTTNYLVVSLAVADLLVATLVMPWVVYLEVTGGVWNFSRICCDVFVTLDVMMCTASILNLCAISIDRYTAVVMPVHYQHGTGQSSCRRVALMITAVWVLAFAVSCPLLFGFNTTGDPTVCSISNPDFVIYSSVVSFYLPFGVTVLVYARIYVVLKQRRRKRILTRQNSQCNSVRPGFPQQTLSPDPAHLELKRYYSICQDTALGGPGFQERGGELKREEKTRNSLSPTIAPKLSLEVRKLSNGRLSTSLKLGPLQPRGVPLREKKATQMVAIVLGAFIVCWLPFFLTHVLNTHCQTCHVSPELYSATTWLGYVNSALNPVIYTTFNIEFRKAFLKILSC

CC1=C(C#N)C(c2ccc3c(c2)c(NC(=O)c2ccccc2C)nn3C)C(C#N)=C(C)N1 [BAY-974]
inactive: residual activity [1] 75% | residual activity [2] 100% | residual activity [3] 100% | residual activity [4] 86% | inhibition [5] 2.48% | residual activity [6] 79% | residual activity [7] 63% | residual activity [8] 85% | residual activity [9] 96% | residual activity [10] 100%

CCc1ccccc1C(=O)Nc1n[nH]c2c(C)c(F)c(C3C(C#N)=C(C)N(C)C(C)=C3C#N)cc12 [BAY-3827]
inactive: residual activity [1] 55% | residual activity [2] 67% | residual activity [3] 100% | residual activity [4] 100% | inhibition [5] 10.4% | residual activity [6] 100% | residual activity [7] 100% | residual activity [8] 99% | residual activity [9] 100% | residual activity [10] 100%
